Assay results published in patent publication US8101761B2, “(E)-N-{3-[1-(8-fluoro-11H-10-OXA-1-AZA-dibenzo [A,D] cyclohepten-5ylidene)-propyl]-phenyl}-methanesulfonamide as glucocorticoid receptor modulator for the treatment of rheumatoid arthritis” (Eli Lilly and Company, priority 2008, dated 2012).

Legend:
[1] = biological target: T1, human AR (androgen receptor) (Homo sapiens, UniProt P10275); experiment: Nuclear hormone receptor competition binding assay, AR; settings: HEK293 lysate overexpressing human AR, [3H]-methyltrienolone; mean of n=7
T1 construct: expressed in transfected cells; host or cells: HEK293 (293-AR lysate)
T1 sequence (P10275 1-920): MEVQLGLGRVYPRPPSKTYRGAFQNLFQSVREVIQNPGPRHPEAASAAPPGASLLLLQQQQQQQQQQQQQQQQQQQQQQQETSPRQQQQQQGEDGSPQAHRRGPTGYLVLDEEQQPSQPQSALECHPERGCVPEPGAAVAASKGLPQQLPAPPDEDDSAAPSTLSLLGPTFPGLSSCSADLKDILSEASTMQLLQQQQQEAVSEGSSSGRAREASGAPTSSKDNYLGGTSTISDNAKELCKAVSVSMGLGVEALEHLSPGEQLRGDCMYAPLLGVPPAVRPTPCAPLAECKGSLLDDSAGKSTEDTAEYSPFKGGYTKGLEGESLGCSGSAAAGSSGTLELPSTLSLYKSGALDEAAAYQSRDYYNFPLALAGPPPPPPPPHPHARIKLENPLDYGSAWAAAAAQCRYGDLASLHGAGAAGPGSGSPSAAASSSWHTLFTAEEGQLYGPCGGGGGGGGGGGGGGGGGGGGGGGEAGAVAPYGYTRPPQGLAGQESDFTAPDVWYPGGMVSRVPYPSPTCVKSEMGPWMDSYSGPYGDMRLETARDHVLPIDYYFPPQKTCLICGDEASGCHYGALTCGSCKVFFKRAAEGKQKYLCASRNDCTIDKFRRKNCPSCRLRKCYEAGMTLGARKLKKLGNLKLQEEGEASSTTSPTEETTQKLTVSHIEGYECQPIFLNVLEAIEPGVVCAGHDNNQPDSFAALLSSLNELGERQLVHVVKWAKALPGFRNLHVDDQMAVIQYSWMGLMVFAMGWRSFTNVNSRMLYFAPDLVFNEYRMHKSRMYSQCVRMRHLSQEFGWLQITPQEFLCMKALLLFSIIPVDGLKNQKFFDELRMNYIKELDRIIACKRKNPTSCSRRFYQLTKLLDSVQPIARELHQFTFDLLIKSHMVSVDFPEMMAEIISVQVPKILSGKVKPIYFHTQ
Method: (§1) Cell lysates from human embryonic kidney HEK293 cells overexpressing human GR (glucocorticoid receptor), AR (androgen receptor), MR (mineralocorticoid receptor), or PR (progesterone receptor) are used for receptor-ligand competition binding assays to determine Ki values.
(§2) Briefly, steroid receptor competition binding assays are run in a buffer containing 20 mM Hepes buffer (pH=7.6), 0.2 mM EDTA, 75 mM NaCl, 1.5 mM MgCl2, 20% glycerol, 20 mM sodium molybdate, 0.2 mM DTT (dithiothreitol), 20 μg/ml aprotinin and 20 μg/ml leupeptin. Typically, steroid receptor binding assays include radio-labeled ligands, such as 0.3 nM [^3H]-dexamethasone for GR binding, 0.36 nM [^3H]-methyltrienolone for AR binding, 0.25 nM [^3H]-aldosterone for MR binding, and 0.29 nM [^3H]-methyltrienolone for PR binding, and either 20 μg 293-GR lysate, 22 μg 293-AR lysate, 20 μg 293-MR lysate or 40 μg 293-PR lysate per well. Assays are typically run in 96-well format. Competing test compounds are added at various concentrations ranging from about 0.01 nM to 10 μM. Non-specific binding is determined in the presence of 500 nM dexamethasone for GR binding, 500 nM aldosterone for MR binding, or 500 nM methyltrienolone for AR and PR binding. […] After an incubation of 2 hours, plates are read in a Wallac Microbeta counter. […]

[2] = biological target: T2, human PR (progesterone receptor) (Homo sapiens, UniProt P06401); experiment: Nuclear hormone receptor competition binding assay, PR; settings: HEK293 lysate overexpressing human PR, [3H]-methyltrienolone; mean of n=7
T2 construct: expressed in transfected cells; host or cells: HEK293 (293-PR lysate)
T2 sequence (P06401 1-933): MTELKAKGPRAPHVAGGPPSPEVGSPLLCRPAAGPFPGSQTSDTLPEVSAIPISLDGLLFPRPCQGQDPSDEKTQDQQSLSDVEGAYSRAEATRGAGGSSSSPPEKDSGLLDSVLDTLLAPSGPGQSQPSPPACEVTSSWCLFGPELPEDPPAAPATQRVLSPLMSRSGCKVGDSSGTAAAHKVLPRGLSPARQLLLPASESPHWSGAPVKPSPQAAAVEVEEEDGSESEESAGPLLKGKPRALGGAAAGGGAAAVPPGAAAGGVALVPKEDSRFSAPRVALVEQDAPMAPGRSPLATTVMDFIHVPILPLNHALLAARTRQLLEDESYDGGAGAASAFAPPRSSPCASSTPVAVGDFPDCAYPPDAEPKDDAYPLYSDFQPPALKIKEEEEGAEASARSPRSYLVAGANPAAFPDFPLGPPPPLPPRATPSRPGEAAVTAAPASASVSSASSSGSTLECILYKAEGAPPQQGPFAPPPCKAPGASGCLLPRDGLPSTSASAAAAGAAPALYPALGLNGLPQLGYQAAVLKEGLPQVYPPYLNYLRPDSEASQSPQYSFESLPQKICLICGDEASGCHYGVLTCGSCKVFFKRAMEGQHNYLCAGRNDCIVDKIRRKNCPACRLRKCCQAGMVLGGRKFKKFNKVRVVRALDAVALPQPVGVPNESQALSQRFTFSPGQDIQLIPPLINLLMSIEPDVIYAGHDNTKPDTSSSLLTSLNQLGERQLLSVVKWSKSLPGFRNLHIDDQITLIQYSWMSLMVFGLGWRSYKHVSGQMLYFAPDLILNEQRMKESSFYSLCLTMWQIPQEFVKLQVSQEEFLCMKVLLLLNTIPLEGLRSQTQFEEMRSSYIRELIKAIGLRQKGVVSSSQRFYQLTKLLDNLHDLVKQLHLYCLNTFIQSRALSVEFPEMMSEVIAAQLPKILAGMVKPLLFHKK
Method: as §1, §2

For CC/C(=C1\c2ccc(F)cc2OCc2ncccc21)c1cccc(NS(C)(=O)=O)c1 [Compound (I), (E)-N-{3-[1-(8-Fluoro-11H-10-oxa-1-aza-dibenzo[a,d]cyclohepten-5-ylidene)-propyl]-phenyl}-methanesulfonamide], the Ki [1] was ~0.0067 µM and the Ki [2] was ~0.032 µM.
